Skin irritation classification and Eye irritation classification data for 1 substance are collected here from patent US20240225981A1, “Synthesized Molecule of Solketal Esters from Palm Kit Oil and Glycerin for Cosmetic and Agricultural Formulations” (BRASIL BIO FUELS S.A, priority 2023, published 2024).

For data set [1], the system named is skin. Put plainly: Skin irritation tests (OECD and GHS). As to conditions: OECD and GHS standards; non-irritating in 2 tests, one test mild. The class given is in vivo. An excerpt: Two new batches of cocoyl glyceryl solketal were sent to confirm dermal irritation tests.
Data set [2] deals with eye. Put plainly: Eye irritation tests (OECD and GHS). The class given is in vivo. Particulars: OECD and GHS standards. An excerpt:
In eye irritation tests, the product was classified as non-irritating according to OECD and GHS standards.

Entries after “also recorded” stand apart in the source; their conditions may differ.

Take Cocoyl glyceryl solketal: the Skin irritation classification entry in data set [1] was “non-irritating; also recorded: mild dermal irritation”. The Eye irritation classification result in data set [2] is on record as “non-irritating”.
